In US12605353B2, “PDIA4 inhibitors and use thereof for inhibiting β-cell pathogenesis and treating diabetes” (Academia Sinica, priority 2019, dated 2026):
Read-outs that look alike come from different tables or passages of the source.

What was measured:
PDIA4 = molecular target: T1, PDIA4 (Homo sapiens, UniProt P13667); assay: biochemical;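 note: enzymatic activity of PDIA4 read as absorbance at 595 nm, inhibition given as percent decrease relative to vehicle-treated control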
T1 sequence (P13667 21-645): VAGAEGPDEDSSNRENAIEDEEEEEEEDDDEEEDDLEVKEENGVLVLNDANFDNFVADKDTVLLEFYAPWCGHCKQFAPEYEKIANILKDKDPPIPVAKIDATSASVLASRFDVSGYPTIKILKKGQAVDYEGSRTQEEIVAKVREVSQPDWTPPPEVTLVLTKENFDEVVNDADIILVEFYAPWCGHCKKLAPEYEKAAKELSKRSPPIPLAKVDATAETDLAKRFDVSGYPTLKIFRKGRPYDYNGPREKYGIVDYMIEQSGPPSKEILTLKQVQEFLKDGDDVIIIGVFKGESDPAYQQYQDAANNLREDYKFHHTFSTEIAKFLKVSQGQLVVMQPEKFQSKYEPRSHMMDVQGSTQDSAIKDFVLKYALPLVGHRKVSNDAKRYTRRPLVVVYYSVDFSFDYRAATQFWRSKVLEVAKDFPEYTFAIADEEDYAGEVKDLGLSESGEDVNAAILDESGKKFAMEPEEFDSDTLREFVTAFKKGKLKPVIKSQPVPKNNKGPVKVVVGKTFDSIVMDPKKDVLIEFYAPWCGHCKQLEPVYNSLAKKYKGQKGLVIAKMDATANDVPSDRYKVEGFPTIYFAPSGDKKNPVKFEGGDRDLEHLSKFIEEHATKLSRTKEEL
Protocol: Recombinant PDI proteins PDIA4 (23 pM) was incubated with insulin (0.2 mM) and DTT (0.1 mM) in the presence of vehicle and compounds at the indicated doses for 30 min at 25° C. The mixture was, measured using a SpectraMax i3x reader at 595 nm based on the manufacturer's instructions (Molecular device, CA, USA). Inhibition of the enzymatic activity PDIA4 is calculated by the formula, 100%×(OD595 of vehicle−OD595 of CP)/(OD595 of vehicle) as published previously.

[1] = Cell viability test (WST-1) in Min6 cells; assay type: cell-based, mouse; conditions: mouse
Protocol: (§1) (A) Effect of drug candidates on insulin secretion in β-cells. Min6 cells were incubated in serum-free oxygen-saturated Krebs-Ringer bicarbonate (KRB) buffer containing high glucose (16.7 mM), CCF642 and drug candidates for 30 min. The supernatants were collected for insulin ELISA assay. (B) Min6 cells were incubated with PBS, CCF642 and drug candidates, respectively, for 24 h. Following PBS washing, WST-1 was added into each well for additional 20 min incubation.
Min6 cells were cultured at 37° C. in complete medium. Cell cytotoxicity was determined using WST-1 (4-[3-(4-Iodophenyl)-2-(4-nitrophenyl)-2H-5-tetrazolio]-1,3-benzene Disulfonate) according to the manutkturet's guidelines. Briefly, the cells were grown in a […] containing complete medium in the presence of the indicated compounds for 24 h. Following PBS washing, WST-1 was added into each well for additional 20 min incubation. After removing the medium, the cells in the plate were measured with a SpectraMax i3x reader at 450 nm.

Min6 cells = assay: Glucose-stimulated insulin secretion in Min6 cells (insulin ELISA); assay type: cell-based, mouse; conditions: for insulin secretion in β-cells, in words: Min6 β-cells
Protocol: as §1
Min6 cells were grown in complete Dulbecco's modified Eagle medium (DMEM) medium containing 10% fetal bovine serum, 100 units/ml penicillin and 100 µg/ml streptomycin in a 5% CO2 incubator in the presence of 3.3 mM glucose unless indicated otherwise. Min6 cells were pre-incubated in serum-free oxygen-saturated Krebs-Ringer bicarbonate (KRB) buffer containing 3.3 mM glucose at 37° C. for 30 min. The cells (7.5×10^4) were then incubated with KRB buffer containing high glucose (16.7 mM) or low glucose (3.3 mM) for an additional 30 min. The supernatants were collected for insulin ELISA assay.

[2] = Table 5, 24 h, WST-1, read-out: CC50
[3] = Min6, a mouse β-cells, read-out: EC50 values, insulin-releasing action
[4] = Mus musculus, 0.5 h, Table 5, insulin secretion, Min6 cells, high glucose (16.7 mM), 30 min, read-out: EC50

SMILES | IC50 (PDIA4) | further results
C#CC(=O)Nc1cc(OC)c(OCCCN2C(=O)c3ccccc3C2=O)cc1C(=O)OC [50b, methyl 5-(3-(1,3-dioxoisoindolin-2-yl)propoxy)-4-methoxy-2-propiolamidobenzoate] | 4.3 µM | 
C#CC(=O)Nc1cc(OC)c(OCCCN(C(=O)C#C)C(=O)c2ccccc2F)cc1C(=O)OC [58b, methyl 5-(3-(2-fluoro-N-propioloylbenzamido)propoxy)-4-methoxy-propiolamidobenzoate] | 4.2 µM | 
C#CC(=O)Nc1cc(OC)c(OCCCN(C(=O)C#C)C(=O)c2ccc(F)cc2)cc1C(=O)OC [58d, methyl 5-(3-(4-fluoro-N-propioloylbenzamido)propoxy)-4-methoxy-2-propiolamidobenzoate] | 2.4 µM | 
C#CC(=O)Nc1cc(OC)c(OCCCN(C(=O)C#C)C(=O)c2cccc(OC)c2)cc1C(=O)OC [58g] | 3.3 µM | 
C#CC(=O)Nc1cc(OC)c(OCCCN(C(=O)C#C)C(=O)Cc2ccccc2)cc1C(=O)OC [58i, methyl 4-methoxy-5-(3-(N-(2-phenylacetyl)propiolamido)propoxy)-2-propiolamidobenzoate] | 1.9 µM | 
C#CC(=O)Nc1cc(OC)c(OCCCN(C(=O)C#C)C(=O)Cc2ccc(F)cc2)cc1C(=O)OC [58l] | 1.4 µM | 
C#CC(=O)Nc1cc(OC)c(OCCCN(C(=O)C#C)C(=O)Cc2cccc(OC)c2)cc1C(=O)OC [58n, methyl 4-methoxy-5-(3-(N-(2-(3-methoxyphenyl)acetyl)propiolamido)propoxy)-2-propiolamidobenzoate] | 1.4 µM | 
C#CC(=O)Nc1cc(OC)c(OCCCN(C(=O)C#C)C(=O)Cc2ccc(OC)cc2)cc1C(=O)OC [58o, methyl 4-methoxy-5-(3-(N-(2-(4-methoxyphenyl)acetyl)propiolamido)propoxy)-2-propiolamidobenzoate] | 2.1 µM | 
C#CC(=O)Nc1cc(OC)c(OCCCN(C(=O)C#C)C(=O)Cc2cccc(Cl)c2)cc1C(=O)OC [58r, methyl 5-(3-(N-(2-(3-chlorophenyl)acetyl)propiolamido)propoxy)-4-methoxy-2-propiolamidobenzoate] | 1.6 µM | 
C#CC(=O)Nc1cc(OC)c(OCCCN(C(=O)C#C)C(=O)Cc2ccccc2C(F)(F)F)cc1C(=O)OC [58s, methyl 4-methoxy-2-propiolamido-5-(3-(N-(2-(2-(trifluoromethyl)phenyl)acetyl)propiolamido)propoxy)benzoate] |  | CC50 at 24 h [1, 2]: 64.9 µM; CC50 at 24 h ([1]; read-out: CC50 values): > 100 µM; EC50 (Min6 cells; [3]): 0.03 µM; insulin secretion in β-cells, in words (Min6 cells): could augment insulin secretion; EC50 (Min6 cells; [4]): 0.02 µM
C#CC(=O)Nc1cc(OC)c(OCCCN(C(=O)C#C)C(=O)Cc2cccc(C(F)(F)F)c2)cc1C(=O)OC [58t, methyl 4-methoxy-2-propiolamido-5-(3-(N-(2-(3-(trifluoromethyl)phenyl)acetyl)propiolamido)propoxy)benzoate] | 0.8 µM | CC50 at 24 h [1, 2]: > 100 µM; CC50 at 24 h ([1]; read-out: CC50 values): 64.9 µM; EC50 (Min6 cells; [3]): 0.02 µM; insulin secretion in β-cells, in words (Min6 cells): could augment insulin secretion; EC50 (Min6 cells; [4]): 0.03 µM; SI (CC50/EC50) (Min6 cells; Table 5, Min6 cells): >3333
CC#CC#C/C=C1/C=CC(=O)O1 [C2, (Z)-5-(hexa-2,4-diyn-1-ylidene)furan-2(5H)-one] | 96.5 µM | 
C#CC(=O)N(c1ccc(OC)cc1OC)C(C(=O)NCC(=O)OCC)c1cccs1 (stereo not shown) [C5, ethyl (2-(N-(2,4-dimethoxyphenyl)propiolamido)-2-(thiophen-2-yl)acetyl)glycinate] | 760 µM | 
CC#CC#C/C=C1\C=CC2(OC=CC2OC(=O)C=C(C)C)O1 (stereo not shown) [C6, (E)-7-(hexa-2,4-diyn-1-ylidene)-1,6-dioxaspiro[4,4]nona-2,8-dien-4-yl 3-methylbut-2-enoate] | 753 µM | 
OCC#CC(O)c1ccccc1 (stereo not shown) [C7, 1-phenylbut-2-yne-1,4-diol] | > 1000 µM | 
CC#CCNc1ccc(NC(C)=O)cc1 [C8, N-(4-(but-2-yn-1-ylamino)phenyl)acetamide] | > 1000 µM | 
O=C(Cc1ccccc1)OCC#CC#CCOC(=O)Cc1ccccc1 [C9, hexa-2,4-diyne-1,6-diyl bis(2-phenylacetate)] | > 1000 µM | 
O=C(OCC#CC#CCOC(=O)c1ccccc1)c1ccccc1 [C10, hexa-2,4-diyne-1,6-diyl dibenzoate] | > 1000 µM | 
C#CC(=O)Nc1ccc(C(=O)NCC(=O)O)cc1 [C11, (4-propiolamidobenzoyl)glycine] | 27.6 µM | 
C#CC(=O)Nc1ccc(CC(=O)O)cc1 [C12, 2-(4-propiolamidophenyl)acetic acid] | 92.1 µM | 

SMILES | IC50 (PDIA4) | further results
C#CC(=O)Nc1ccc(O)c(C(=O)O)c1 [C14, 2-hydroxy-5-propiolamidobenzoic acid] | 55.7 µM | 
CC#CC#CC#CC#CCCC(O)CO (stereo not shown) [CPD P2, cytopiloyne aglycone, reference compound] | 168 µM | 
COC(=O)c1cc(OC)c(OC)cc1N [compound 3, methyl 2-amino-4,5-dimethoxybenzoate] | > 1000 µM | 
C#CC(=O)Nc1cc(OC)c(OC)cc1C(=O)OCC[Si](C)(C)C [compound 7, 2-(trimethylsilyl)ethyl 4,5-dimethoxy-2-propiolamidobenzoate] | 78.7 µM | 
COc1cc(N)c(C(=O)O)cc1OC [compound 9, 2-amino-4,5-dimethoxybenzoic acid] | > 1000 µM | 
C#CC(=O)OC(=O)c1cc(OC)c(OC)cc1N [compound 10, 2-amino-4,5-dimethoxybenzoic propiolic anhydride] | 1.6 µM | 
C#CC(=O)OC(=O)c1cc(OCc2ccccc2)c(OC)cc1N [compound 16, 2-amino-5-(benzyloxy)-4-methoxybenzoic propiolic anhydride] | 13.3 µM | 
COC(=O)c1cc(OC)c(OC)c(OC)c1N [compound 19, methyl 2-amino-3,4,5-trimethoxybenzoate] | > 1000 µM | 
C#CC(=O)Nc1c(C(=O)OC)cc(OC)c(OC)c1OC [compound 20, methyl 3,4,5-trimethoxy-2-propiolamidobenzoate] | 42.5 µM | 
COc1cc(C(=O)O)c(N)c(OC)c1OC [compound 21, 2-amino-3,4,5-trimethoxybenzoic acid] | > 1000 µM | 
C#CC(=O)OC(=O)c1cc(OC)c(OC)c(OC)c1N [compound 22, 2-amino-3,4,5-trimethoxybenzoic propiolic anhydride] | 4.3 µM | 
C#CC(=O)Nc1cc(OCCC)c(OCCC)cc1C(=O)OC [compound 29, methyl 2-propiolamido-4,5-dipropoxybenzoate] | > 300 µM | 
C#CC(=O)Nc1cc(OCCC)c(OCCC)cc1C(=O)OCCC [compound 30, propyl 2-propiolamido-4,5-dipropoxybenzoate] | > 300 µM | 
C#CC(=O)Nc1cc(OC)c(OCCCN(C(=O)C#C)C(=O)c2ccccc2)cc1C(=O)O [compound 40, 4-methoxy-2-propiolamido-5-(3-(N-propioloylbenzamido)propoxy)benzoic acid] | 3.9 µM | 
C#CC(=O)Nc1cc(OC)c(OCCC)cc1C(=O)OCCC [compound 43, propyl 4-methoxy-2-propiolamido-5-propoxybenzoate] | 431 µM | 
CCCOc1cc(C(=O)O)c(N)cc1OC [compound 44, 2-amino-4-methoxy-5-propoxybenzoic acid] | > 1000 µM | 
C#CC(=O)OC(=O)c1cc(OCCC)c(OC)cc1N [compound 45, 2-amino-4-methoxy-5-propoxybenzoic propiolic anhydride] | 1 µM | 
COC(=O)c1cc(OCCCN)c(OC)cc1[N+](=O)[O-] [compound 55, methyl 5-(3-aminopropoxy)-4-methoxy-2-nitrobenzoate] | > 1000 µM | 
C#CC(=O)Nc1cc(OC)c(OCCCNC(=O)OC(C)(C)C)cc1C(=O)OC [compound 61, Methyl 5-(3-((tert-butoxycarbonyl)amino)propoxy)-4-methoxy-2-propiolamidobenzoate] | 4.7 µM | 
